# Key:
# Assay type in all cases: physicochemical
# [1] = Compatibility of atorvastatin and coating material: related compounds on storage under severe conditions (HPLC); settings: atorvastatin 0.5 mg with coating material 2.5 mg, vacuum-dried, stored at about 60° C., relative humidity about 85%
# Procedure: (§1) To form an atorvastatin-containing drug-coating layer, compatibility of atorvastatin with various coating materials (coating agents and surfactants) were evaluated. About 2.5 mg of each coating material as shown in Table 2 was dissolved in 5 mL of a 75% aqueous ethanol solution, and about 0.5 mg of atorvastatin was added thereto and then completely dissolved. About 0.5 mg of atorvastatin was completely dissolved in 5 mL of a 75% aqueous ethanol solution as a control group for the compatibility evaluation. Each of the resulting solutions was vacuum-dried at about 50° C. for about 24 hours to completely remove the solvent, thereby preparing test samples. While each test temple was stored under severe conditions (at a temperature of about 60° C. and a relative humidity of about 85%), a degree of generation of related compounds with time was observed. The related compounds were analyzed by HPLC in the following manner.
# <Atorvastatin Analysis Method>
# (§2) Each test sample was dissolved in 25 mL of methanol, followed by a 2-fold dilution with a mobile phase and filtration through a 0.45-um filter, thereby preparing analysis samples.
# Mobile phase; acetonitrile: 0.5% (v/v) aqueous formic acid solution=50:50
# [2] = Compatibility of pitavastatin and coating material: related compounds on storage under severe conditions (HPLC); settings: pitavastatin 0.5 mg with coating material 2.5 mg, vacuum-dried, stored at about 60° C., relative humidity about 85%
# Procedure: as §1, with “To form a pitavastatin-containing drug-coating layer,” for “To form an atorvastatin-containing drug-coating layer,”, “compatibility of pitavastatin with various” for “compatibility of atorvastatin with various”, “in Table 3 was dissolved” for “in Table 2 was dissolved”, “mg of pitavastatin was added” for “mg of atorvastatin was added”, “mg of pitavastatin alone was completely” for “mg of atorvastatin was completely”, “degree of generated related compounds” for “degree of generation of related compounds”
# <Pitavastatin Analysis Method>
# as §2
# Mobile phase; acetonitrile: 0.1% (v/v) aqueous trifluoroacetic acid (TFA) solution=60:40
# [3] = Compatibility of rosuvastatin and coating material: related compounds on storage under severe conditions (HPLC); settings: rosuvastatin 0.5 mg with coating material 2.5 mg, vacuum-dried, stored at about 60° C., relative humidity about 85%
# Procedure: To form a rosuvastatin-containing drug-coating layer, compatibility of rosuvastatin with various coating materials (coating agents and surfactants) were evaluated. About 2.5 mg of each coating material as shown in Table 1 was dissolved in 5 mL of a 75% aqueous ethanol solution, and about 0.5 mg of rosuvastatin was added thereto and then completely dissolved. About 0.5 mg of rosuvastatin alone was completely dissolved in 5 mL of a 75% aqueous ethanol solution as a control group for the compatibility evaluation. Each of the resulting solutions was vacuum-dried at about 50° C. for about 24 hours to completely remove the solvent, thereby preparing a test sample. While each test temple was stored under severe conditions (at a temperature of about 60° C. and a relative humidity of about 85%), a degree of generation of related compounds with time was observed. The related compounds were analyzed by high-performance liquid chromatography (HPLC) in the following manner.
# <Rosuvastatin Analysis Method>
# The test sample was dissolved in 25 mL of methanol, followed by a 2-fold dilution with a mobile phase and filtration through a 0.45-um filter, thereby preparing an analysis sample.
# Mobile phase; Acetonitrile: 0.5% (v/v) aqueous formic acid solution=50:50
smiles,measurement,setting,value
CC(C)c1c(C(=O)Nc2ccccc2)c(-c2ccccc2)c(-c2ccc(F)cc2)n1CC[C@@H](O)C[C@@H](O)CC(=O)O [Atorvastatin],"Related compound (%, 1st week)",[1],0.3%
same,"Related compound (%, 1st week)",[1]; listed as atorvastatin,About 0.3%
same,"Related compound (%, 3rd week)",[1],3.3%
same,"Related compound (%, 3rd week)",[1]; listed as atorvastatin,about 3.3%
O=C(O)C[C@H](O)C[C@H](O)/C=C/c1c(C2CC2)nc2ccccc2c1-c1ccc(F)cc1 [Pitavastatin],"Related compound (%, 1st week)",[2],0.1%
same,"Related compound (%, 1st week)",[2]; listed as pitavastatin,About 0.1%
same,"Related compound (%, 3rd week)",[2],0.2%
same,"Related compound (%, 3rd week)",[2]; listed as pitavastatin,about 0.2%
CC(C)c1nc(N(C)S(C)(=O)=O)nc(-c2ccc(F)cc2)c1/C=C/[C@@H](O)C[C@@H](O)CC(=O)O [Rosuvastatin],"Related compound (%, 1st week)",[3],1.4%
same,"Related compound (%, 1st week)",[3]; listed as rosuvastatin,About 1.4%
same,"Related compound (%, 3rd week)",[3],5.2%
same,"Related compound (%, 3rd week)",[3]; listed as rosuvastatin,about 5.4%

# Reference: patent US9320718B2, “Multilayer coating form of orally administered pharmaceutical composition containing omega-3 fatty acid or alkyl ester thereof and statin based drug” (KUHNIL PHARM. CO., LTD., priority 2012, dated 2016)
